Experimental data from patent US20090048301A1 (IMCLONE SYSTEMS INCORPORATED, priority 2003, published 2009).

How the values were obtained:
bovine tubulin = test: In vitro tubulin polymerization assay (turbidity at 340 nm); type: biochemical; details: 10 μM compound, 30 minute data point, vs 1% DMSO control
Outline: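 Percent inhibition derives from turbidity (340 nm) at 30 min relative to 1% DMSO controls, read every minute at 37° C. Polymerization mix: 3 mg/ml bovine tubulin, <3% MAPs, in PIPES pH 7 G-PEM with 1 mM GTP, 1 mM MgCl2, 5% glycerol; enhancers also detectable.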

[1] = system: A431, human epidermoid carcinoma cells; test: Cell cycle analysis (FACS), mitotic arrest in G2/M; type: cell-based; details: Homo sapiens, A-431, 24 h, read-out: FACS Assay: concentration required to achieve inhibition in FACS assay
Description: The cell cycle analysis was performed as follows. Cancer cells (A431, human epidennoid carcinoma cells) were maintained in culture in D-MEM media with 10% FBS and 1 mg/ml glutamate. Prior to experiment, cells were plated onto 6-well plates for a final density of 500,000 cells/well at the time of treatment. Cells were treated with the compounds of the invention at a concentration of about 0.01 to 1 μM final concentrations (final 0.1% DMSO) for 24 hours, then trypsinized, collected, rinsed in PBS (phosphate buffered saline), and fixed in 70% cold ethanol overnight at 4° C. The cells were then rinsed with PBS, resuspended in PBS with 0.2% Tween, RNAse was added (final 1 μg/ml), cells were incubated at 37° C. for 15 min, followed by addition of Propidium Iodide (final 50 μg/ml), and a 30 minute incubation at room temperature. DNA ploidy was analyzed using flow cytometers (Epics Excel, Beckman-Coulter, or Guava PCA-96, Guava Technologies) and mitotic arrest characterized by massive accumulation of cells in the G2/M phase of cell cycle.
Cancer cells (A431, human epidermoid cells) were maintained in culture in D-MEM media with 10% FBS and 1 mg/ml glutamate. Prior to experiment, cells are plated onto 6-well plates for a final density of 500,000 cells/well at the time of treatment. Cells were treated with compounds at 0.01-1 μM final concentrations (final […] DMS 0) for 24 hours, then trypsinized, collected, rinsed in PBS (phosphate buffered saline), and fixed in 70% cold ethanol overnight at 4° C. Cells were then rinsed with PBS, resuspended in PBS with 0.2% Tween, RNAse was added (final 1 μg/ml), cells were incubated at 37° C. for 15 min, followed by addition of Propidium Iodide (final 50 μg/ml), and a 30 minute incubation at room temperature. DNA ploidy was analyzed using cell sorters (Epics Excel, Beckman-Coulter, or Guava PCA-96, Guava Technologies) and mitotic arrest characterized by massive accumulation of cells in the G2/M phase of cell cycle.

Row | SMILES | Tubulin Assay: percent inhibition at 10 μM based on 30 minute data (bovine tubulin) [%] | minimal effective concentration [1] [µM]
1 | c1cnc(Nc2ccc3c(c2)OCO3)c(-c2nnc(Nc3ccc4c(c3)OCO4)[nH]2)c1 [Compound 32, Benzo[1,3]dioxol-5-yl-{3-[5-(benzo[1,3]dioxol-5-ylamino)-4H-[1,2,4]triazol-3-yl]-pyridin-2-yl}-amine] | 54 | 10
2 | c1cnc(NCc2ccncc2)c(-c2nnc(Nc3ccc4c(c3)OCO4)[nH]2)c1 [Compound 38, {3-[5-(Benzo[1,3]dioxol-5-ylamino)-4H-[1,2,4]triazol-3-yl]-pyridin-2-yl}-pyridin-4-ylmethyl-amine] | 77 | 0.1
3 | COc1cccc(Nc2nnc(-c3cccnc3NCc3ccncc3)[nH]2)c1 [Compound 39, {3-[5-(3-Methoxy-phenylamino)-4H-[1,2,4]triazol-3-yl]-pyridin-2-yl}-pyridin-4-ylmethyl-amine] | 83 | 0.1
4 | c1coc(CNc2ncccc2-c2nnc(Nc3ccc4c(c3)OCO4)[nH]2)c1 [Compound 40, {3-[5-(Benzo[1,3]dioxol-5-ylamino)-4H-[1,2,4]triazol-3-yl]-pyridin-2-yl}-furan-2-ylmethyl-amine] | 71 | 1
5 | COc1cccc(Nc2nnc(-c3cccnc3NCc3ccco3)[nH]2)c1 [Compound 42, Furan-2-ylmethyl-{3-[5-(3-methoxy-phenylamino)-4H-[1,2,4]triazol-3-yl]-pyridin-2-yl}-amine] | 69 | 10
6 | Fc1ccc(CNc2ncccc2-c2nnc(Nc3ccc4c(c3)OCO4)[nH]2)cc1F [Compound 43, {3-[5-(Benzo[1,3]dioxol-5-ylamino)-4H-[1,2,4]triazol-3-yl]-pyridin-2-yl}-(3,4-difluoro-benzyl)-amine] | 84 | 1
7 | Fc1ccc(CNc2ncccc2-c2nnc(Nc3ccc4c(c3)OCCO4)[nH]2)cc1F [Compound 44, (3,4-Difluoro-benzyl)-{3-[5-(2,3-dihydro-benzo[1,4]dioxin-6-ylamino)-4H-[1,2,4]triazol-3-yl]-pyridin-2-yl}-amine] | 84 | 1
8 | COc1cccc(Nc2nnc(-c3cccnc3NCc3ccc(F)c(F)c3)[nH]2)c1 [Compound 45, (3,4-Difluoro-benzyl)-{3-[5-(3-methoxy-phenylamino)-4H-[1,2,4]triazol-3-yl]-pyridin-2-yl}-amine] | 83 | 1
9 | COc1cc(Nc2ncccc2-c2nnc(Nc3ccc4c(c3)OCCO4)[nH]2)cc(OC)c1 [Compound 50, {3-[5-(2,3-Dihydro-benzo[1,4]dioxin-6-ylamino)-4H-[1,2,4]triazol-3-yl]-pyridin-2-yl}-(3,5-dimethoxy-phenyl)-amine] | 90 | 0.1
10 | COc1ccc(CNc2ncccc2-c2nnc(Nc3ccc4c(c3)OCCO4)[nH]2)cc1 [Compound 51, {3-[5-(2,3-Dihydro-benzo[1,4]dioxin-6-ylamino)-4H-[1,2,4]triazol-3-yl]-pyridin-2-yl}-(4-methoxy-benzyl)-amine] | 68 | 1
11 | COc1cc(Nc2ncccc2-c2nnc(NCC3CCCO3)[nH]2)cc(OC)c1 (stereo not drawn) [Compound 56, (3,5-Dimethoxy-phenyl)-(3-{5-[(tetrahydro-furan-2-ylmethyl)-amino]-4H-[1,2,4]triazol-3-yl}-pyridin-2-yl)-amine] | 97 | 1
12 | COc1cccc(CNc2nnc(-c3cccnc3Nc3cc(OC)cc(OC)c3)[nH]2)c1 [Compound 58, (3,5-Dimethoxy-phenyl)-{3-[5-(3-methoxy-benzylamino)-4H-[1,2,4]triazol-3-yl]-pyridin-2-yl}-amine] | 100 | 0.1
13 | COc1ccc(CNc2nnc(-c3cccnc3Nc3cc(OC)cc(OC)c3)[nH]2)cc1 [Compound 59, (3,5-Dimethoxy-phenyl)-{3-[5-(4-methoxy-benzylamino)-4H-[1,2,4]triazol-3-yl]-pyridin-2-yl}-amine] | 88 | 1
14 | COc1cc(Nc2ncccc2-c2nnc(Nc3cccc([N+](=O)[O-])c3)[nH]2)cc(OC)c1 [Compound 60a, (3,5-dimethoxy-phenyl)-{3-[5-(3-nitro-phenylamino)-4H-[1,2,4]triazol-3-yl]-pyridin-2-yl}-amine] | 95 | 0.1
15 | c1cnc(OCc2ccc3c(c2)OCO3)c(-c2nnc(Nc3ccc4c(c3)OCCO4)[nH]2)c1 [Compound 71, {5-[2-(Benzo[1,3]dioxol-5-ylmethoxy)-pyridin-3-yl]-4H-[1,2,4]triazol-3-yl}-(2,3-dihydro-benzo[1,4]dioxin-6-yl)-amine] | 83 | 0.1
16 | c1cnc(OCc2ccc3c(c2)OCO3)c(-c2nnc(Nc3ccc4c(c3)OCO4)[nH]2)c1 [Compound 72, Benzo[1,3]dioxol-5-yl-{5-[2-(benzo[1,3]dioxol-5-ylmethoxy)-pyridin-3-yl]-4H-[1,2,4]triazol-3-yl}-amine] | 100 | 0.1
17 | COc1cccc(Nc2nnc(-c3cccnc3OCc3ccc4c(c3)OCO4)[nH]2)c1 [Compound 73, {5-[2-(Benzo[1,3]dioxol-5-ylmethoxy)-pyridin-3-yl]-4H-[1,2,4]triazol-3-yl}-(3-methoxy-phenyl)-amine] | 70 | 1
18 | COc1cc(Nc2ncccc2-c2nnc(-c3ccc(S(C)(=O)=O)cc3)[nH]2)cc(OC)c1 [Compound 74, (3,5-Dimethoxy-phenyl)-{3-[5-(4-methanesulfonyl-phenyl)-4H-[1,2,4]triazol-3-yl]-pyridin-2-yl}-amine] | 87 | 0.1
19 | CS(=O)(=O)c1ccc(-c2nnc(-c3cccnc3Nc3cccc(S(N)(=O)=O)c3)[nH]2)cc1 [Compound 92, 3-{3-[5-(4-Methanesulfonyl-phenyl)-4H-[1,2,4]triazol-3-yl]-pyridin-2-ylamino}-benzenesulfonamide] | 74 | 10
20 | CS(=O)(=O)c1ccc(-c2nnc(-c3cccnc3NCc3ccc4c(c3)CCO4)[nH]2)cc1 [Compound 97, (2,3-Dihydro-benzofuran-5-ylmethyl)-{3-[5-(4-methanesulfonyl-phenyl)-4H-[1,2,4]triazol-3-yl]-pyridin-2-yl}-amine] | 77 | 1
21 | CS(=O)(=O)c1ccc(-c2nnc(-c3cccnc3NCc3ccco3)[nH]2)cc1 [Compound 98, Furan-2-ylmethyl-{3-[5-(4-methanesulfonyl-phenyl)-4H-[1,2,4]triazol-3-yl]-pyridin-2-yl}-amine] | 83 | 1
22 | COc1cccc(-c2nnc(-c3cccnc3NCc3ccc(F)c(F)c3)[nH]2)c1 [Compound 100, (3,4-Difluoro-benzyl)-{3-[5-(3-methoxy-phenyl)-4H-[1,2,4]triazol-3-yl]-pyridin-2-yl}-amine] | 70 | 10
23 | COCCCOc1ccccc1-c1cnc(Nc2cccc(OC)c2)o1 [Compound 258, (3-Methoxy-phenyl)-{5-[2-(3-methoxy-propoxy)-phenyl]-oxazol-2-yl}-amine] | 47 | 
